Experimental data: article PMC3479967 (Evidence-based Complementary and Alternative Medicine : eCAM, 2012)
Read-outs that look alike come from different tables or passages of the source.

Target: T1, UGT1A4 (Homo sapiens, UniProt P22310)
T1 construct: purchased BD Gentest Corp. (Woburn, MA, USA); host or cells: baculovirus-infected insect cells
T1 sequence (P22310 29-534): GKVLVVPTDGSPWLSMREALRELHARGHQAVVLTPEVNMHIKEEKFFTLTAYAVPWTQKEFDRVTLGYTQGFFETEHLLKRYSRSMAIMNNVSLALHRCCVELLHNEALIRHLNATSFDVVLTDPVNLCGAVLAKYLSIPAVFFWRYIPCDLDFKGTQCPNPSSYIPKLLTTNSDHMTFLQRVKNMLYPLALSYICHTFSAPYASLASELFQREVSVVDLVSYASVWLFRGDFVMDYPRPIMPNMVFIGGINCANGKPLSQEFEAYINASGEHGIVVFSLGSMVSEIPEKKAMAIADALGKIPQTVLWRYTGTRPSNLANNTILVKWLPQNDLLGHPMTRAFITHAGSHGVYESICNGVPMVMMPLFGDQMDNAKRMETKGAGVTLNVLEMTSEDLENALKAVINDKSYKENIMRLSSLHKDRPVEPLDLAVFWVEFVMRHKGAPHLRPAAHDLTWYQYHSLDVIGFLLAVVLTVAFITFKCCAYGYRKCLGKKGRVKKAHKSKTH
Assay: Inhibition of recombinant UGT1A4 activity (TFP glucuronidation)
Format: biochemical
Method: TFP was used as the substrate for UGT1A4. Trifluoperazine glucuronide (TFPG) formation was measured using a modification of the method reported. […] Reactions were initiated by the addition of UDPGA and incubations were performed at 37°C in a shaking water bath for 20 min. Incubations were terminated by the addition of 4% acetic acid/96% methanol (0.2 mL) and then centrifuged at 20,500 ×g for 15 min. A 40 μL aliquot of the supernatant fraction was injected into the HPLC column. […] A gradient mobile phase consisting initially of 30 : 70, mobile phase A (acetonitrile) verse mobile phase B (0.5% formic acid/water) was brought to a composition of 90 : 10 in 10 min which was held for 7 min, all at a flow rate of 1 mL/min. Column eluant was monitored by UV absorbance 256 nm. […] The negative controls are the incubation without UDPGA.

[1] = recombinant human UGT1A4, 50 μM TFP, mean ± SD, read-out: IC50 for inhibition of UGT1A4 activity

Row | Compound | IC50 [1] | IC50
1 | COc1ccc(-c2oc3c(CC=C(C)C)c(O[C@@H]4O[C@H](CO)[C@@H](O)[C@H](O)[C@H]4O)cc(O)c3c(=O)c2O[C@@H]2O[C@@H](C)[C@H](O)[C@@H](O)[C@H]2O)cc1 [Icariin] | 42.8 ± 2.4 µM | –
2 | COc1ccc(-c2oc3c(CC=C(C)C)c(O)cc(O)c3c(=O)c2O)cc1 [Icaritin] | – | > 100 µM
3 | COc1ccc(-c2oc3c(CC=C(C)C)c(O[C@@H]4O[C@H](CO)[C@@H](O)[C@H](O)[C@H]4O)cc(O)c3c(=O)c2O)cc1 [Icariside I] | > 100 µM | –
